Source: EP3800188A1, “SUBSTITUTED PYRAZOLOPYRIMIDINES AS IRAK4 INHIBITORS” (Bayer AG, priority 2019, dated 2021)

Tests used:
[1] = Metabolic stability in human liver microsomes; conditions: 1 µM compound; for CLblood, human microsomes: hepatic in vivo blood clearance calculated with well stirred liver model, '(stable)' given beside < 0.01; for Fmax, human microsomes: maximal oral bioavailability calculated with well stirred liver model, 0.5 mg/mL protein, '(stable)' given beside 100
Method: The in vitro metabolic stability of test compounds was determined by incubating them at 1 µM in a suspension liver microsomes in 100 mM phosphate buffer, pH7.4 (NaH2PO4 x H2O + Na2HPO4 x 2H2O) and at a protein concentration of 0.5 mg/mL at 37° C. The microsomes were activated by adding a co-factor mix containing 8 mM Glukose-6-Phosphat, 4 mM MgCl2, 0.5 mM NADP and 1 IU/mL G-6-P-Dehydrogenase in phosphate buffer, pH 7.4. The metabolic assay was started shortly afterwards by adding the test compound to the incubation at a final volume of 1 mL. Organic solvent in the incubations was limited to ≤0.01 % dimethylsulfoxide (DMSO) and ≤1% acetonitril. During incubation, the microsomal suspensions were continuously shaken at 580 rpm, and aliquots were taken at 2, 8, 16, 30, 45 and 60 min, to which equal volumes of cold methanol were immediately added. Samples were frozen at -20° C over night, subsequently centrifuged for 15 min at 3000 rpm and the supernatant was analyzed with an Agilent 1200 HPLC-system with LCMS/MS detection.
The half-life of a test compound was determined from the concentration-time plot. From the half-life the intrinsic clearances were calculated. Together with the additional parameters liver blood flow, specific liver weight and microsomal protein content the hepatic in vivo blood clearance (CL) and the maximal oral bioavailability (Fmax) were calculated using the "well stirred" liver model. The following parameter values were used: Liver blood flow - 1.32 L/h/kg (human), 2.1 L/h/kg (dog); specific liver weight - 21 g/kg (human), 39 g/kg (dog); microsomal protein content - 40 mg/g.

human IRAK4 = biological target: T1, human IRAK4 (Homo sapiens, UniProt Q9NWZ3); assay: Human IRAK4 kinase activity inhibition assay (IRAK4 TR-FRET assay); type: biochemical; conditions: 1 mM ATP, GST-human IRAK4, average or median values
T1 construct: GST (N); made in house; host or cells: baculovirus-infected Hi5 (BTI-TN-5B1-4) insect cells
T1 sequence (Q9NWZ3 1-460): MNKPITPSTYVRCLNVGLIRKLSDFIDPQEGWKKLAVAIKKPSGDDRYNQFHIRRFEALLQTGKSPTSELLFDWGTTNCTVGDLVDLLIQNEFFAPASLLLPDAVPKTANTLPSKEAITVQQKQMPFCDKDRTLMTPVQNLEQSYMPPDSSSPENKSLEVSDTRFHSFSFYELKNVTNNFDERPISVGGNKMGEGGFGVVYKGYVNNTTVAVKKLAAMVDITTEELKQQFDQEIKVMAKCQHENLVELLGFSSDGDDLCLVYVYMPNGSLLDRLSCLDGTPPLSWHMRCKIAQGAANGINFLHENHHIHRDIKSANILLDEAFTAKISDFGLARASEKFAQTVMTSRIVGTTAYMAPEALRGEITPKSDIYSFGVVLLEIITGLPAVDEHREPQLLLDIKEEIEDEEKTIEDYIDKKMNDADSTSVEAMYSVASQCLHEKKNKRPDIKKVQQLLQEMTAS
Outline: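 Signal was the 665/620 nm emission ratio from a europium anti-mouse-IgG, anti-phosphoserine antibody and streptavidin-XL665 complex formed over 1 h at 22°C. It was scaled between no-enzyme (100%) and no-compound (0%) wells. Beforehand, compounds (20 µM down to 0.073 nM, 11 points) sat 15 min with roughly 0.2 nM insect-cell-expressed GST-human IRAK4 before phosphorylation of a biotinylated peptide substrate.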

CC1(N2CCOCC2)CN(c2nc(NC3CCS(=O)(=O)CC3)nc3c2cnn3-c2cccc(C(F)(F)F)c2)C1 [Example I-106, N-(1,1-dioxidotetrahydro-2H-thiopyran-4-yl)-4-[3-methyl-3-(morpholin-4-yl)azetidin-1-yl]-1-[3-(trifluoromethyl)phenyl]-1H-pyrazolo[3,4-d]pyrimidin-6-amine]
CLblood, human microsomes [1]: 0.68 L/h/kg | Fmax, human microsomes [1]: 48% | IC50 (human IRAK4): 9.09 nM

C[C@]1(O)C[C@@H](Nc2nc(N3C[C@@H](O)[C@H](O)C3)c3cnn(-c4cccc(C(F)(F)F)c4)c3n2)C1 [Example I-107]
CLblood, human microsomes [1]: 0.05 L/h/kg | Fmax, human microsomes [1]: 96% | IC50 (human IRAK4): 8.11 nM

C[C@]1(O)C[C@H](Nc2nc(N3C[C@@H](O)[C@H](O)C3)c3cnn(-c4cccc(C(F)(F)F)c4)c3n2)C1 [Example I-108, (3R,4R)-1-(6-{[(1r,3R)-3-hydroxy-3-methylcyclobutyl]amino}-1-[3-(trifluoromethyl)-phenyl]-1H-pyrazolo[3,4-d]pyrimidin-4-yl)pyrrolidine-3,4-diol]
CLblood, human microsomes [1]: 0.16 L/h/kg | Fmax, human microsomes [1]: 88% | IC50 (human IRAK4): 3.72 nM

CC1(O)CCN(C2CN(c3nc(N[C@H]4C[C@@H](O)C4)nc4c3cnn4-c3cccc(C(F)(F)F)c3)C2)CC1 [Example I-109, 1-(1-{6-[(cis-3-hydroxycyclobutyl)amino]-1-[3-(trifluoromethyl)phenyl]-1H-pyrazolo[3,4-d]pyrimidin-4-yl}azetidin-3-yl)-4-methylpiperidin-4-ol]
CLblood, human microsomes [1]: 0.33 L/h/kg | Fmax, human microsomes [1]: 75% | IC50 (human IRAK4): 10.6 nM

CC1(O)CCN(C2CN(c3nc(N[C@H]4C[C@@](C)(O)C4)nc4c3cnn4-c3cccc(C(F)(F)F)c3)C2)CC1 [Example I-111, 1-(1-{6-[(cis-3-hydroxy-3-methylcyclobutyl)amino]-1-[3-(trifluoromethyl)phenyl]-1H-pyrazolo[3,4-d]pyrimidin-4-yl}azetidin-3-yl)-4-methylpiperidin-4-ol]
CLblood, human microsomes [1]: 0.13 L/h/kg | Fmax, human microsomes [1]: 90% | IC50 (human IRAK4): 11.1 nM

O=C1CCCN1C1CN(c2nc(N[C@H]3C[C@@H](O)C3)nc3c2cnn3-c2cccc(C(F)(F)F)c2)C1 [Example I-112, 1-(1-{6-[(cis-3-hydroxycyclobutyl)amino]-1-[3-(trifluoromethyl)phenyl]-1H-pyrazolo[3,4-d]pyrimidin-4-yl}azetidin-3-yl)pyrrolidin-2-one]
CLblood, human microsomes [1]: 0.39 L/h/kg | Fmax, human microsomes [1]: 71% | IC50 (human IRAK4): 3.24 nM

O=C1CCCN1C1CN(c2nc(N[C@H]3C[C@H](O)C3)nc3c2cnn3-c2cccc(C(F)(F)F)c2)C1 [Example I-113, 1-(1-{6-[(trans-3-hydroxycyclobutyl)amino]-1-[3-(trifluoromethyl)phenyl]-1H-pyrazolo-[3,4-d]pyrimidin-4-yl}azetidin-3-yl)pyrrolidin-2-one]
CLblood, human microsomes [1]: 0.03 L/h/kg | Fmax, human microsomes [1]: 98% | IC50 (human IRAK4): 3.6 nM

OC1(CN2CCCC2)CCN(c2nc(N[C@H]3C[C@@H](O)C3)nc3c2cnn3-c2cccc(C(F)(F)F)c2)CC1 [Example I-114, 1-{6-[(cis-3-hydroxycyclobutyl)amino]-1-[3-(trifluoromethyl)phenyl]-1H-pyrazolo[3,4-d]pyrimidin-4-yl}-4-(pyrrolidin-1-ylmethyl)piperidin-4-ol]
CLblood, human microsomes [1]: 0.21 L/h/kg | Fmax, human microsomes [1]: 84% | IC50 (human IRAK4): 8.49 nM

O=C1CN(C2CN(c3nc(N[C@H]4C[C@@H](O)C4)nc4c3cnn4-c3cccc(C(F)(F)F)c3)C2)CCN1 [Example I-115, 4-(1-{6-[(cis-3-hydroxycyclobutyl)amino]-1-[3-(trifluoromethyl)phenyl]-1H-pyrazolo[3,4-d]pyrimidin-4-yl}azetidin-3-yl)piperazin-2-one]
CLblood, human microsomes [1]: < 0.01 (stable) L/h/kg | Fmax, human microsomes [1]: 100 (stable) % | IC50 (human IRAK4): 7.51 nM

O=C1C[C@H](Nc2nc(N3CC(N4CCOCC4)C3)c3cnn(-c4cccc(C(F)F)c4)c3n2)CN1 [II-1, (4S)-4-({1-[3-(difluoromethyl)phenyl]-4-[3-(morpholin-4-yl)azetidin-1-yl]-1H-pyrazolo[3,4-d]pyrimidin-6-yl}amino)pyrrolidin-2-one]
CLblood, human microsomes [1]: < 0.01 (stable) L/h/kg | Fmax, human microsomes [1]: 100 (stable) % | IC50 (human IRAK4): 3.46 nM

CC(C)(O)CC1CN(c2nc(NC3CCS(=O)(=O)CC3)nc3c2cnn3-c2cccc(C(F)F)c2)C1 [II-7, 1-(1-{1-[3-(difluoromethyl)phenyl]-6-[(1,1-dioxidotetrahydro-2H-thiopyran-4-yl)amino]-1H-pyrazolo[3,4-d]pyrimidin-4-yl}azetidin-3-yl)-2-methylpropan-2-ol]
CLblood, human microsomes [1]: < 0.01 (stable) L/h/kg | Fmax, human microsomes [1]: 100 (stable) % | IC50 (human IRAK4): 5.37 nM

CS(=O)(=O)[C@H]1C[C@H](Nc2nc(N3CC(N4CCOCC4)C3)c3cnn(-c4cccc(C(F)F)c4)c3n2)C1 [II-8, 1-[3-(difluoromethyl)phenyl]-N-[trans-3-(methylsulfonyl)cyclobutyl]-4-[3-(morpholin-4-yl)azetidin-1-yl]-1H-pyrazolo[3,4-d]pyrimidin-6-amine]
CLblood, human microsomes [1]: < 0.01 (stable) L/h/kg | Fmax, human microsomes [1]: 100 (stable) % | IC50 (human IRAK4): 2.01 nM

O=C(CC1CN(c2nc(NC3CCS(=O)(=O)CC3)nc3c2cnn3-c2cccc(C(F)F)c2)C1)N1CCOCC1 [II-10, 2-(1-{1-[3-(difluoromethyl)phenyl]-6-[(1,1-dioxidotetrahydro-2H-thiopyran-4-yl)amino]-1H-pyrazolo[3,4-d]pyrimidin-4-yl}azetidin-3-yl)-1-(morpholin-4-yl)ethanone]
CLblood, human microsomes [1]: 0.42 L/h/kg | Fmax, human microsomes [1]: 68% | IC50 (human IRAK4): 4.31 nM

CC(C)(O)C1CCN(c2nc(N[C@H]3C[C@H](S(C)(=O)=O)C3)nc3c2cnn3-c2cccc(C(F)F)c2)CC1 [II-11, 2-[1-(1-[3-(difluoromethyl)phenyl]-6-{[trans-3-(methylsulfonyl)cyclobutyl]amino}-1H-pyrazolo[3,4-d]pyrimidin-4-yl)piperidin-4-yl]propan-2-ol]
CLblood, human microsomes [1]: 0.25 L/h/kg | Fmax, human microsomes [1]: 81% | IC50 (human IRAK4): 2.67 nM

CC(C)(O)CC1CN(c2nc(NC3CN(S(C)(=O)=O)C3)nc3c2cnn3-c2cccc(C(F)F)c2)C1 [II-14, 1-[1-(1-[3-(difluoromethyl)phenyl]-6-{[1-(methylsulfonyl)azetidin-3-yl]amino}-1H-pyrazolo[3,4-d]pyrimidin-4-yl)azetidin-3-yl]-2-methylpropan-2-ol]
CLblood, human microsomes [1]: < 0.01 (stable) L/h/kg | Fmax, human microsomes [1]: 100 (stable) % | IC50 (human IRAK4): 7.01 nM

CS(=O)(=O)[C@H]1C[C@H](Nc2nc(N3C[C@H](O)[C@@H](F)C3)c3cnn(-c4cccc(C(F)F)c4)c3n2)C1 [II-16-2, (3S,4S)-1-(1-[3-(difluoromethyl)phenyl]-6-{[trans-3-(methanesulfonyl)cyclobutyl]amino}-1H-pyrazolo[3,4-d]pyrimidin-4-yl)-4-fluoropyrrolidin-3-ol]
CLblood, human microsomes [1]: < 0.01 (stable) L/h/kg | Fmax, human microsomes [1]: 100 (stable) % | IC50 (human IRAK4): 2.82 nM

CS(=O)(=O)[C@H]1C[C@H](Nc2nc(N3C[C@@H](O)[C@H](F)C3)c3cnn(-c4cccc(C(F)F)c4)c3n2)C1 [II-16-3, (3R,4R)-1-(1-[3-(difluoromethyl)phenyl]-6-{[trans-3-(methanesulfonyl)cyclobutyl]-amino)-1H-pyrazolo[3,4-d]pyrimidin-4-yl)-4-fluoropyrrolidin-3-ol]
CLblood, human microsomes [1]: 0.08 L/h/kg | Fmax, human microsomes [1]: 94% | IC50 (human IRAK4): 1.62 nM

CC(C)(O)C1CCN(c2nc(N[C@H]3C[C@@]4(CCN4)C3)nc3c2cnn3-c2cccc(C(F)F)c2)CC1 [II-18, 2-(1-{6-[(4r,6s)-1-azaspiro[3.3]heptan-6-ylamino]-1-[3-(difluoromethyl)phenyl]-1H-pyrazolo[3,4-d]pyrimidin-4-yl}piperidin-4-yl)propan-2-ol]
CLblood, human microsomes [1]: 0.10 L/h/kg | Fmax, human microsomes [1]: 93% | IC50 (human IRAK4): 1.4 nM

CC(C)(O)CC1CN(c2nc(N[C@H]3C[C@H](S(C)(=O)=O)C3)nc3c2cnn3-c2cccc(C(F)F)c2)C1 [II-19, 1-[1-(1-[3-(difluoromethyl)phenyl]-6-{[trans-3-(methylsulfonyl)cyclobutyl]amino}-1H-pyrazolo[3,4-d]pyrimidin-4-yl)azetidin-3-yl]-2-methylpropan-2-ol]
CLblood, human microsomes [1]: 0.23 L/h/kg | Fmax, human microsomes [1]: 82% | IC50 (human IRAK4): 1.63 nM

CS(=O)(=O)N1CC(Nc2nc(N3CCC(C4(N)CC4)CC3)c3cnn(-c4cccc(C(F)F)c4)c3n2)C1 [II-20, 4-[4-(1-aminocyclopropyl)piperidin-1-yl]-1-[3-(difluoromethyl)phenyl]-N-[1-(methylsulfonyl)azetidin-3-yl]-1H-pyrazolo[3,4-d]pyrimidin-6-amine]
CLblood, human microsomes [1]: 0.04 L/h/kg | Fmax, human microsomes [1]: 97% | IC50 (human IRAK4): 1.39 nM
